SMILES strings stand for the structures. Values joined by “and” are separate entries in the source; they are usually repeats but may differ in a detail not shown here. Identical values can stand only once.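 Briefly, cells in 96-well plates were exposed to five compound concentrations for 48 h, and endpoints were estimated by linear interpolation. GI50 marks 50% less growth. TGI: concentration producing complete growth inhibition.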

Assay in all cases: NCI-60 cell line screen, 48 h
Assay [1] concerns SK-OV-3 ovarian.
Assay [2] has as its system SK-MEL-2 melanoma.
The subject of assay [3] is UACC-62 melanoma.
In assay [4] the test system is MDA-MB-231 breast.
Assay [5] deals with SF-268 CNS.
Assay [6] has as its system NCI-H460 lung.
Assay [7] relates to TK-10 renal.
The subject of assay [8] is MALME-3M melanoma.
Assay [9] deals with NCI-H23 lung.
Assay [10] relates to OVCAR-5 ovarian.

With `CCCCN(CCCC)CCc1c(C)cc(C)c(CCN(CCCC)CCCC)c1O`, the GI50 in assay [1] is 2.68 µM; in assay [2] it was 2.24 µM; in [3] it was 2.86 µM; in assay [4], 2.43 µM; in [5], 3.23 µM; in assay [6] it was 2.91 µM. Also, the GI50 was 3.03 µM in [7], 2.94 µM in [8], 2.76 µM in assay [9] and 3.26 µM in [10]. Moreover, the TGI in assay [1] was 8.53 µM; in assay [2], 5.78 µM; in assay [3], 29.7 µM; in [4], 8.56 µM; in assay [5], over 100 µM; in assay [6], 9.59 µM. Moreover, the TGI in [7] is over 100 µM; in [8], 11.3 µM; in assay [9], 23.7 µM; in assay [10] it was over 100 µM.

`COc1cc2c(c(OC)c1OC)-c1ccc(O)c(=O)cc1[C@@H](NC(C)=O)CC2`: the GI50 is 11 µM in assay [1]; 20 µM in assay [2]; 3.82 µM in assay [3]; 4.7 µM in [4]; 7.42 µM in [5]; 3.9 µM in assay [6]. The GI50 in [8] is 19.2 µM; in assay [10] it was 22.7 µM. In addition, the TGI is over 100 µM in assay [1]; over 100 µM in assay [2]; 18.1 µM and 30 µM in [3]; > 100 µM and 41.7 µM in [4]; over 100 µM in [5]; > 100 µM and 28.6 µM in assay [6]. The TGI is over 100 µM in [7], 97.7 µM in assay [8], 39.5 µM in [9] and over 100 µM in assay [10].

For `Clc1ccc2c(c1)C(N1CCNCC1)=Nc1ccccc1O2`, the GI50 was 1.94 µM in assay [1]; 1.77 µM in [2]; 1.63 µM in assay [3]; 1.79 µM in [4]; 2.65 µM in assay [5]; 2.46 µM in assay [6]. In addition, the GI50 is 2.04 µM in assay [7], 1.75 µM in [8], 3.46 µM in assay [9] and 3.28 µM in assay [10]. For the same molecule, the TGI in assay [1] came to 4.5 µM; in [2], 3.4 µM; in [3], 3.1 µM; in assay [4] it was 4.02 µM; in assay [5], 11.8 µM; in [6], 5.41 µM. In addition, the TGI is 4.72 µM in assay [7], 3.5 µM in assay [8], 14.3 µM in [9] and 12.9 µM in [10].

Take `COc1cc(/C=C2\CN(C(=O)CCN3CCC(=NO)CC3)C/C(=C\c3cc(OC)c(OC)c(OC)c3)C2=O)cc(OC)c1OC`: the GI50 in [1] is 1.87 µM; in assay [2], 1.25 µM; in [3] it was 0.182 µM; in [4], 0.323 µM; in [5], 0.535 µM; in [6] it was 0.282 µM. Besides, the GI50 in assay [7] is 1.18 µM; in assay [8], 0.211 µM; in assay [9], 0.342 µM; in [10], 0.874 µM. Further, the TGI is 4.78 µM in [1]; 4.14 µM in assay [2]; 0.411 µM in assay [3]; 1.11 µM in assay [4]; 1.95 µM in assay [5]; 0.847 µM in [6]. Further, the TGI in assay [7] turned out to be 2.8 µM; in assay [8], 0.579 µM; in assay [9], 1.39 µM; in assay [10] it was 2.28 µM.

Consider `Cn1cc(C2=C(c3cn(C)c4cc(N)ccc34)C(=O)NC2=O)c2ccccc21`, for which the GI50 is 2.25 µM in assay [1]; 4.26 µM in [2]; 3.44 µM in assay [3]; 4.09 µM in assay [4]; 3.67 µM in [5]; 1.4 µM in assay [6]. Moreover, the GI50 in assay [7] was 4.03 µM; in [8] it was 11 µM; in assay [9], 3.72 µM; in assay [10], 8.13 µM. In addition, the TGI is over 25 µM in assay [1]; 10.6 µM in assay [2]; 8.39 µM in assay [3]; 16.2 µM in assay [4]; 13.7 µM in assay [5]; over 25 µM in assay [6]. The TGI is 14.3 µM in assay [7], over 22.3 µM in assay [8], 11.8 µM in assay [9] and over 21.9 µM in assay [10].
